The values below come from PubChem BioAssay AID248 (DTP/NCI, 2004).

SMILES strings stand for the structures. Several values for one entry are separate records, joined by “and”; a condition that tells them apart may be missing. Identical values can stand only once. Inconclusive results and toxic doses are left out.

For the assay, the system named is L1210 leukemia ip in BDF1 mice, survival T/C. Description: NCI In Vivo Anticancer Drug Screen. Data for tumor model L1210 Leukemia (intraperitoneal) in B6D2F1 (BDF1) mice. Conditions: endpoint: mean survival time, higher = longer survival. Summed up: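 Survival endpoint. Drug-treated group vs vehicle group, expressed as T divided by C. Tumor passaged by transplantation.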

Setting [1] is: dose: 100.0 mg/kg/injection, schedule: Q01DX009 (ip), vehicle: saline.
Where [2] appears, read: dose: 100.0 mg/kg/injection, schedule: Q04DX003 (ip), vehicle: saline.
The mark [3] stands for this setting: dose: 200.0 mg/kg/injection, schedule: Q01DX001 (ip), vehicle: saline.
Setting [4] is: dose: 200.0 mg/kg/injection, schedule: Q01DX009 (ip), vehicle: saline.
The mark [5] stands for this setting: dose: 200.0 mg/kg/injection, schedule: Q04DX003 (ip), vehicle: saline.
Where [6] appears, read: dose: 400.0 mg/kg/injection, schedule: Q01DX009 (ip), vehicle: saline.
[7] abbreviates: dose: 400.0 mg/kg/injection, schedule: Q04DX003 (ip), vehicle: saline.
[8] abbreviates: dose: 100.0 mg/kg/injection, schedule: Q01DX009 (ip), vehicle: Klucel (hydroxypropylcellulose) (HPC).
Setting [9] is: dose: 100.0 mg/kg/injection, schedule: Q04DX003 (ip), vehicle: Klucel (hydroxypropylcellulose) (HPC).
Where [10] appears, read: dose: 200.0 mg/kg/injection, schedule: Q01DX009 (ip), vehicle: Klucel (hydroxypropylcellulose) (HPC).
[11] abbreviates: dose: 200.0 mg/kg/injection, schedule: Q04DX003 (ip), vehicle: Klucel (hydroxypropylcellulose) (HPC).
Where [12] appears, read: dose: 400.0 mg/kg/injection, schedule: Q01DX009 (ip), vehicle: Klucel (hydroxypropylcellulose) (HPC).
Where [13] appears, read: dose: 400.0 mg/kg/injection, schedule: Q04DX003 (ip), vehicle: Klucel (hydroxypropylcellulose) (HPC).
Setting [14] is: dose: 100.0 mg/kg/injection, schedule: Q01DX009 (ip), vehicle: saline with Tween-80.
The mark [15] stands for this setting: dose: 200.0 mg/kg/injection, schedule: Q01DX009 (ip), vehicle: saline with Tween-80.
Setting [16] is: dose: 400.0 mg/kg/injection, schedule: Q01DX009 (ip), vehicle: saline with Tween-80.

`Cc1ccccc1N=Nc1c(O)n(-c2ccc(Br)cc2)c(=S)n(-c2ccccc2)c1=O`: the T/C runs as follows: (dose: 37.5 mg/kg/injection, schedule: Q01DX001 (ip), vehicle: Klucel (hydroxypropylcellulose) (HPC)) 101 % of control; (dose: 75.0 mg/kg/injection, schedule: Q01DX001 (ip), vehicle: Klucel (hydroxypropylcellulose) (HPC)) 101 % of control; (dose: 150.0 mg/kg/injection, schedule: Q01DX001 (ip), vehicle: Klucel (hydroxypropylcellulose) (HPC)) 101 % of control.
For `CCCC(=O)N1CC(C)OC(C)C1` (stereo not drawn), the T/C is 100 % of control (dose: 100.0 mg/kg/injection, schedule: Q01DX001 (ip), vehicle: saline); 98 % of control and 104 % of control under setting [1]; 109 % of control (dose: 100.0 mg/kg/injection, schedule: Q04DX002 (ip), vehicle: saline); 98 % of control under setting [2]; 93 % of control under setting [3]; 100 % of control and 104 % of control under setting [4]. Also, the T/C reads like this: (dose: 200.0 mg/kg/injection, schedule: Q04DX002 (ip), vehicle: saline) 115 % of control; under setting [5], 104 % of control; (dose: 400.0 mg/kg/injection, schedule: Q01DX001 (ip), vehicle: saline) 104 % of control; under setting [6], 96 % of control and 107 % of control; (dose: 400.0 mg/kg/injection, schedule: Q04DX002 (ip), vehicle: saline) 102 % of control; under setting [7], 100 % of control.
For `CC(=O)C(CCC#N)(CCC#N)c1ccccc1`, the T/C was 121 % of control (dose: 50.0 mg/kg/injection, schedule: Q04DX002 (ip), vehicle: Klucel (hydroxypropylcellulose) (HPC)) and 101 % of control (dose: 100.0 mg/kg/injection, schedule: Q04DX002 (ip), vehicle: Klucel (hydroxypropylcellulose) (HPC)).
With `Nc1ccc2[nH]c3ccccc3c2c1`, the T/C runs as follows: under setting [8], 95 % of control; under setting [9], 104 % of control; under setting [10], 95 % of control; under setting [11], 91 % of control; under setting [12], 92 % of control; under setting [13], 94 % of control.
With `NN(CC(=O)O)c1ccccc1`, the T/C is 100 % of control under setting [14], 105 % of control under setting [15] and 94 % of control under setting [16].
`Nc1ccccc1SC(CC(=O)c1ccccc1)c1ccc([N+](=O)[O-])cc1` (stereo not drawn): the T/C (dose: 100.0 mg/kg/injection, schedule: Q01DX005 (ip), vehicle: Klucel (hydroxypropylcellulose) (HPC)) is 101 % of control; the T/C under setting [8] is 97 % of control; the T/C under setting [10] was 91 % of control; the T/C (dose: 400.0 mg/kg/injection, schedule: Q01DX005 (ip), vehicle: Klucel (hydroxypropylcellulose) (HPC)) is 86 % of control; the T/C under setting [12] is 97 % of control.
With `CCCCCCCCCCCCC(CC(=O)O)C(=O)N(CCO)CCO` (stereo not drawn), the T/C is, setting by setting: (dose: 12.5 mg/kg/injection, schedule: Q01DX001 (ip), vehicle: saline) 97 % of control; (dose: 25.0 mg/kg/injection, schedule: Q01DX001 (ip), vehicle: saline) 94 % of control; (dose: 50.0 mg/kg/injection, schedule: Q01DX001 (ip), vehicle: saline) 91 % of control; under setting [3], 97 % of control.
With `Clc1cc(Cl)c2nc(Cl)c3ccccc3c2c1`, the T/C is, setting by setting: under setting [8], 100 % of control; under setting [9], 95 % of control; under setting [10], 92 % of control; under setting [11], 90 % of control; under setting [12], 100 % of control; under setting [13], 93 % of control.
On to `CC12CC3(C)CC(C)(C1)CC(NC(=O)N(CCCl)N=O)(C2)C3`, for which the T/C runs as follows: (dose: 20.0 mg/kg/injection, schedule: Q01DX001 (ip), vehicle: other) 155 % of control; (dose: 187.0 mg/kg/injection, schedule: Q01DX001 (ip), vehicle: other) 162 % of control; (dose: 250.0 mg/kg/injection, schedule: Q01DX001 (ip), vehicle: other) 187 % of control; (dose: 375.0 mg/kg/injection, schedule: Q01DX001 (ip), vehicle: other) 211 % of control; (dose: 500.0 mg/kg/injection, schedule: Q01DX001 (ip), vehicle: other) 258 % of control; (dose: 750.0 mg/kg/injection, schedule: Q01DX001 (ip), vehicle: other) 274 % of control.
In the case of `CC(C)C(N)(CCN1CCOCC1)c1cccc2ccccc12` (stereo not drawn), the T/C is, setting by setting: under setting [14], 99 % of control; (dose: 100.0 mg/kg/injection, schedule: Q04DX002 (ip), vehicle: saline with Tween-80) 88 % of control; under setting [15], 101 % of control; (dose: 200.0 mg/kg/injection, schedule: Q04DX002 (ip), vehicle: saline with Tween-80) 92 % of control.
As for `O=c1[nH]nc(-c2ccc(C(F)(F)F)cc2)s1`, the T/C runs as follows: (dose: 75.0 mg/kg/injection, schedule: Q01DX001 (ip), vehicle: saline) 95 % of control; (dose: 75.0 mg/kg/injection, schedule: Q04DX003 (ip), vehicle: saline) 93 % of control; (dose: 150.0 mg/kg/injection, schedule: Q01DX001 (ip), vehicle: saline) 104 % of control; (dose: 150.0 mg/kg/injection, schedule: Q04DX003 (ip), vehicle: saline) 98 % of control; (dose: 300.0 mg/kg/injection, schedule: Q01DX001 (ip), vehicle: saline) 97 % of control; (dose: 300.0 mg/kg/injection, schedule: Q04DX003 (ip), vehicle: saline) 98 % of control.
As for `CC/C(=N\NC(N)=O)C(OC)OC`, the T/C runs as follows: (dose: 100.0 mg/kg/injection, schedule: Q01DX001 (ip), vehicle: carboxymethylcellulose (CMC)) 108 % of control; (dose: 200.0 mg/kg/injection, schedule: Q01DX001 (ip), vehicle: carboxymethylcellulose (CMC)) 86 % of control; (dose: 400.0 mg/kg/injection, schedule: Q01DX001 (ip), vehicle: carboxymethylcellulose (CMC)) 92 % of control.
With `C/C(=C\CN1C(=O)CCCC1=O)CCC(=O)O`, the T/C reads like this: (dose: 100.0 mg/kg/injection, schedule: Q01DX009 (ip), vehicle: other) 90 % of control; (dose: 100.0 mg/kg/injection, schedule: Q04DX003 (ip), vehicle: other) 102 % of control; (dose: 200.0 mg/kg/injection, schedule: Q01DX009 (ip), vehicle: other) 98 % of control; (dose: 200.0 mg/kg/injection, schedule: Q04DX003 (ip), vehicle: other) 91 % of control; (dose: 400.0 mg/kg/injection, schedule: Q01DX009 (ip), vehicle: other) 93 % of control; (dose: 400.0 mg/kg/injection, schedule: Q04DX003 (ip), vehicle: other) 93 % of control.
As to `CCCc1c(C)nc(N)[nH]c1=O`, the T/C is, setting by setting: (dose: 100.0 mg/kg/injection, schedule: Q01DX001 (ip), vehicle: Klucel (hydroxypropylcellulose) (HPC)) 102 % of control; (dose: 200.0 mg/kg/injection, schedule: Q01DX001 (ip), vehicle: Klucel (hydroxypropylcellulose) (HPC)) 100 % of control; (dose: 400.0 mg/kg/injection, schedule: Q01DX001 (ip), vehicle: Klucel (hydroxypropylcellulose) (HPC)) 97 % of control.
As to `CC(=O)NCSCC(N)C(=O)O` (stereo not drawn), the T/C was 100 % of control under setting [1]; 108 % of control under setting [2]; 95 % of control under setting [4]; 92 % of control under setting [5]; 92 % of control under setting [6]; 94 % of control under setting [7].
`COCN(C(=O)CCl)c1c(C)cccc1C(C)(C)C`: the T/C is, setting by setting: under setting [14], 95 % of control; under setting [15], 97 % of control; under setting [16], 93 % of control.
